In ChEMBL document CHEMBL1150138, “The isolation of two new chromone derivatives from the New Zealand fungus Tolypocladium extinguens” (2002):
Values after ≈ are worked out from the molar mass of the structure shown. Active and inactive are the calls of the source. The rule behind the calls is not given here.

Experiments:
[1] = tested on: Trichophyton mentagrophytes; experiment: Antimicrobial activity against Trichophyton mentagrophytes by disk susceptibility test; assay type: functional, organism-based
Escherichia coli = experiment: Antimicrobial activity against Escherichia coli by disk susceptibility test; assay type: functional, organism-based
Bacillus subtilis = experiment: Antimicrobial activity against Bacillus subtilis by disk susceptibility test; assay type: functional, organism-based
Candida albicans = experiment: Antimicrobial activity against Candida albicans by disk susceptibility test; assay type: functional, organism-based
Pseudomonas aeruginosa = experiment: Antimicrobial activity against Pseudomonas aeruginosa by disk susceptibility test; assay type: functional, organism-based
Amorphotheca resinae = experiment: Antimicrobial activity against Cladosporium resinae by disk susceptibility test; assay type: functional, organism-based
P388 = experiment: Cytotoxicity against mouse P388 cells after 1 to 11 days by MTT assay; assay type: functional; conditions: read-out: ID50 (the source's name)

| Compound | Activity [1] | Activity (Escherichia coli) | Activity (Bacillus subtilis) | Activity (Candida albicans) | Activity (Pseudomonas aeruginosa) | Activity (Amorphotheca resinae) | IC50 (P388) [µg/mL] |
| --- | --- | --- | --- | --- | --- | --- | --- |
| COCc1c(OC)cc2oc(CO)cc(=O)c2c1O | inactive | inactive | inactive | inactive | inactive | inactive | – |
| COc1cc2oc(C)cc(=O)c2c(O)c1CO | inactive | inactive | inactive | inactive | inactive | inactive | – |
| COCc1c(OC)cc2oc(C)cc(=O)c2c1O | inactive | inactive | inactive | inactive | inactive | inactive | 6 (≈ 24 µM) |
